According to ChEMBL document CHEMBL1914397, “Daedalols A-C, fungal-derived BACE1 inhibitors” (Bioorg Med Chem, 2011):

Target: Beta-secretase 1 (Homo sapiens, UniProt P56817)
Assay: Inhibition of BACE1-mediated amyloid precursor protein cleavage after 16 hrs by chemiluminescent enzyme-fragment complementation assay

Beta-secretase 1, sequence (P56817 whole entry, the tested form may be a part): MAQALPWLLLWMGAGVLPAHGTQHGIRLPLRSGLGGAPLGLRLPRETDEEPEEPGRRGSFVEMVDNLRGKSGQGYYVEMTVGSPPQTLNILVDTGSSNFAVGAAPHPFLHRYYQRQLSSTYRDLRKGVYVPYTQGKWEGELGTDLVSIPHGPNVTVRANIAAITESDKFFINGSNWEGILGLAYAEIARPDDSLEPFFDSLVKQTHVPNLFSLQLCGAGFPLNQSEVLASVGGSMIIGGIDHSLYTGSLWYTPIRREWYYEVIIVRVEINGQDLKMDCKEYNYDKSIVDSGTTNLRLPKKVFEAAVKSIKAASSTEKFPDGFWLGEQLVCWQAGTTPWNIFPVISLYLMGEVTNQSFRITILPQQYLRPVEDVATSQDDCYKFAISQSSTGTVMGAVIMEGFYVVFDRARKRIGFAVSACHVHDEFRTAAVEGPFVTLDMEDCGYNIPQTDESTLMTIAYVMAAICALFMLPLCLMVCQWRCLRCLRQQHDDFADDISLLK

Molecule C[C@H](CC(=O)[C@@]1([C@H](C)C(=O)O)CO1)[C@H]1CC[C@@]2(C)C3=C(CC[C@]12C)[C@@]1(C)CC[C@@H](OC(=O)CC(=O)O)C(C)(C)[C@@H]1CC3 [DAEDALOL C] has an IC50 of 14.2 µM.
